Laboratory results reported in paper PMC4729137, “Functional analysis of androgen receptor mutations that confer anti-androgen resistance identified in circulating cell-free DNA from prostate cancer patients” (Genome Biology, 2016).
Like-named read-outs stand apart in the source and are kept apart here.

Assays:
24 AR mutants = assay: AR inhibition luciferase assay, panel of all 24 AR mutants; format: cell-based, human; settings: all tested AR mutants; Additional file 4: Table S2
Excerpt: Full-length human AR (WT-AR) was encoded on a pcDNA3.1 expression plasmid (Life technologies). The LBD point mutations (single and multiple) were generated using the QuikChange II Site-Directed Mutagenesis Kit (Agilent Technologies) as per manufacturer’s instructions using WT-AR as the template. The mutagenic oligonucleotide primers were designed individually with the desired mutation in the middle of the primer with approximately 10 to 15 bases of correct sequence on both sides.
PC3 cells were seeded and transfected as described above. […] A non-stimulated/no R1881 control was used. After 24 h, cells were lysed and AR-dependent luciferase activity was quantified. Each concentration was assayed in quadruplicate n = 4, with a biological replicate of n = 3. Results were averaged and normalized by expressing them as a percentage of WT AR activity.

[1] = serum of prostate cancer patients, cited from earlier work
BF3 pocket of AR-LBD = molecular target: T1, BF3 pocket of AR-LBD (Homo sapiens, UniProt P10275); assay: Lanthascreen TR-FRET displacement of FITC-BAG1L peptide; format: binding; settings: compounds 0.41 to 100 μM
T1 construct: the (His)6-tagged AR-LBD was prepared at 4X final concentration in the buffer
T1 sequence (P10275 669-900 limits assumed): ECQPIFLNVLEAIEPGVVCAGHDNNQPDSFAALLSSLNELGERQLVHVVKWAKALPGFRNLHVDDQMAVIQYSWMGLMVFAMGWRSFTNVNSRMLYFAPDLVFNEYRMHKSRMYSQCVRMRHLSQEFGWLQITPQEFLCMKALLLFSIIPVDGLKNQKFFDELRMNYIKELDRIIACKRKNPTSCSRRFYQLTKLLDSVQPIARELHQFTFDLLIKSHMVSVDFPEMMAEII
Experimental: Compounds were tested in the range of 0.41 to 100 μM in a final concentration of 1.5 % DMSO. The protein AR-LBD, the FITC-BAG1L peptide, and the LanthaScreen® Elite Terbium-labeled anti-His-tag antibody (Life Technologies, PV5863) were used at final concentrations of 100 nM, 500 nM, and 5 nM, respectively. […] Mix B contained 4X FITC-BAG1L peptide in 2 % DMSO. A three-fold serial dilution of the compounds was prepared at 100X final concentration in DMSO. […] In a black flat bottom 384-well plate 5 μL of Mix A, 5 μL of Mix B, and 10 μL of Mix C were added.

SMILES: C[C@]12CC[C@H](O)CC1=CC[C@@H]1[C@@H]2CC[C@]2(C)C(c3cccnc3)=CC[C@@H]12 [abiraterone]
- Activation of AR mutants (in words) (24 AR mutants): none of the tested mutants were activated

SMILES: CC(O)(CS(=O)(=O)c1ccc(F)cc1)C(=O)Nc1ccc(C#N)c(C(F)(F)F)c1 (stereo not shown) [Bicalutamide, bicalutamide]
- Steady state concentration in serum [1]: 8.9 µg/mL
- Steady state concentration in serum ([1]; converted from μg/mL): approximately 20 μM

SMILES: Brc1cn(-c2csc(N3CCOCC3)n2)c(Br)n1 [VPC-14449]
- Displacement of FITC labeled BAG1L peptide (residues 1-20) from the BF3 pocket of AR (BF3 pocket of AR-LBD): not able to displace
